Results as given in patent US8987267B2, “2-substituted-8-alkyl-7-OXO-7,8-dihydropyrido[2,3-D]pyrimidine-6-carbonitriles and uses thereof in treating proliferative disorders” (Temple University—of the Commonwealth System of Higher …, priority 2010, dated 2015).

Assays:
[1] = biological target: TBK1 (Homo sapiens, UniProt Q9UHD2); experiment: Kinase inhibition panel; format: biochemical; conditions: 10 μM ATP
[2] = biological target: PDGFRb (Homo sapiens, UniProt P09619); experiment: Kinase inhibition panel; format: biochemical; conditions: 10 μM ATP
[3] = biological target: ZAK/MLTK (Homo sapiens, UniProt Q9NYL2); experiment: Kinase inhibition panel; format: biochemical; conditions: 10 μM ATP
[4] = biological target: CDK9/cyclinT1 (Homo sapiens, UniProt P50750); experiment: Kinase inhibition panel; format: biochemical; conditions: 10 μM ATP
[5] = biological target: LOK/STK10 (Homo sapiens, UniProt O94804); experiment: Kinase inhibition panel; format: biochemical; conditions: 10 μM ATP
Method: (§1) The compounds in Table 4 were tested for the ability to inhibit the kinase activity of the listed protein kinases.

[6] = biological target: LIMK1 (Homo sapiens, UniProt P53667); experiment: Kinase inhibition panel; format: biochemical; conditions: 10 μM ATP
Method: as §1

[7] = biological target: FLTINEGFRI (Homo sapiens, UniProt P17948); experiment: Kinase inhibition panel; format: biochemical; conditions: 10 μM ATP
Method: as §1

[8] = biological target: LCK (Homo sapiens, UniProt P06239); experiment: Kinase inhibition panel; format: biochemical; conditions: 10 μM ATP
Method: as §1

[9] = biological target: SIK2/SNF1LK2 (Homo sapiens, UniProt Q9H0K1); experiment: Kinase inhibition panel; format: biochemical; conditions: 10 μM ATP
Method: as §1

[10] = biological target: ABL2/ARG (Homo sapiens, UniProt P42684); experiment: Kinase inhibition panel; format: biochemical; conditions: 10 μM ATP
Method: as §1

[11] = biological target: CDK2/cyclinE (Homo sapiens, UniProt P24941); experiment: Kinase inhibition panel; format: biochemical; conditions: 10 μM ATP
Method: as §1

[12] = biological target: EphB4 (Homo sapiens, UniProt P54760); experiment: Kinase inhibition panel; format: biochemical; conditions: 10 μM ATP
Method: as §1

[13] = biological target: c-Src (Homo sapiens, UniProt P12931); experiment: Kinase inhibition panel; format: biochemical; conditions: 10 μM ATP
Method: as §1

[14] = biological target: FMS (Homo sapiens, UniProt P07333); experiment: Kinase inhibition panel; format: biochemical; conditions: 10 μM ATP
Method: as §1

[15] = biological target: RIPK2 (Homo sapiens, UniProt O43353); experiment: Kinase inhibition panel; format: biochemical; conditions: 10 μM ATP
Method: as §1

[16] = biological target: SNARK/NUAK2 (Homo sapiens, UniProt Q9H093); experiment: Kinase inhibition panel; format: biochemical; conditions: 10 μM ATP
Method: as §1

[17] = biological target: CDK5/p25 (Homo sapiens, UniProt Q00535); experiment: Kinase inhibition panel; format: biochemical; conditions: 10 μM ATP
Method: as §1

[18] = biological target: EPHA1 (Homo sapiens, UniProt P21709); experiment: Kinase inhibition panel; format: biochemical; conditions: 10 μM ATP
Method: as §1

[19] = biological target: CDK3/cyclinE (Homo sapiens, UniProt Q00526); experiment: Kinase inhibition panel; format: biochemical; conditions: 10 μM ATP
Method: as §1

[20] = biological target: LYNB (Homo sapiens, UniProt P07948); experiment: Kinase inhibition panel; format: biochemical; conditions: 10 μM ATP
Method: as §1

[21] = biological target: CDK2/cyclinA (Homo sapiens, UniProt P24941); experiment: Kinase inhibition panel; format: biochemical; conditions: 10 μM ATP
Method: as §1

[22] = biological target: FGFR1 (Homo sapiens, UniProt P11362); experiment: Kinase inhibition panel; format: biochemical; conditions: 10 μM ATP
Method: as §1

[23] = system: SW480; experiment: Cytotoxicity assay, viable cell count; format: cell-based; conditions: Homo sapiens; SW480, COLO-RECTAL; 96 h continuous treatment, trypan blue
Method: (§2) Cells (1×10^5) were plated into 6-well dishes and 24 h later 8-cyclopentyl-2-((4-(4-methylpiperazin-1-yl)phenyl)amino)-7-oxo-7,8-dihydropyrido[2,3-d]pyrimidine-6-carbonitrile (12) was added at five different concentrations over a 2 log dilution (1-100 μM). The total number of viable cells was determined after 96 h of continuous treatment by staining with trypan blue and counting the number of non-staining cells (viable) remaining in each well using a hemacytometer. The percentage of viable cells remaining was calculated as follows: # viable cells (compound treated)/# viable cells (DMSO treated)*100.

[24] = system: RAJI; experiment: Cytotoxicity assay, viable cell count; format: cell-based; conditions: Homo sapiens, B-Cell Lymphoma, 96 h continuous treatment, trypan blue
Method: as §2

[25] = system: MIA-PaCa-2; experiment: Cytotoxicity assay, viable cell count; format: cell-based; conditions: Homo sapiens; MIA-PaCa-2, Pancreatic; 96 h continuous treatment, trypan blue
Method: as §2

[26] = system: SNU-449; experiment: Cytotoxicity assay, viable cell count; format: cell-based; conditions: Homo sapiens; SNU-449, Liver; 96 h continuous treatment, trypan blue
Method: as §2

[27] = system: A549; experiment: Cytotoxicity assay, viable cell count; format: cell-based; conditions: Homo sapiens; A549, NSCLC; 96 h continuous treatment, trypan blue
Method: as §2

[28] = system: HELA; experiment: Cytotoxicity assay, viable cell count; format: cell-based; conditions: Homo sapiens, Cervical, 96 h continuous treatment, trypan blue
Method: as §2

[29] = system: DU145; experiment: Cytotoxicity assay, viable cell count; format: cell-based; conditions: Homo sapiens, DU-145; DU145, PROSTATE; 96 h continuous treatment, trypan blue
Method: as §2

[30] = system: N417; experiment: Cytotoxicity assay, viable cell count; format: cell-based; conditions: N417, SCLC; 96 h continuous treatment, trypan blue
Method: as §2

[31] = system: U87; experiment: Cytotoxicity assay, viable cell count; format: cell-based; conditions: Homo sapiens, U-87 MG; U87, Glioblastoma; 96 h continuous treatment, trypan blue
Method: as §2

[32] = system: U266; experiment: Cytotoxicity assay, viable cell count; format: cell-based; conditions: Homo sapiens, U-266; U266, Multiple Myeloma; 96 h continuous treatment, trypan blue
Method: as §2

[33] = biological target: EphB2/HEK5 (Homo sapiens, UniProt P29323); experiment: Kinase inhibition panel; format: biochemical; conditions: 10 μM ATP
[34] = biological target: NLK (Homo sapiens, UniProt Q9UBE8); experiment: Kinase inhibition panel; format: biochemical; conditions: 10 μM ATP
[35] = biological target: TAOK1 (Homo sapiens, UniProt Q7L7X3); experiment: Kinase inhibition panel; format: biochemical; conditions: 10 μM ATP
[36] = biological target: CDK4/Cyclin D3 (Homo sapiens, UniProt P11802); experiment: Kinase inhibition panel; format: biochemical; conditions: 10 μM ATP
[37] = biological target: PKCnu/PRK D3 (Homo sapiens, UniProt O94806); experiment: Kinase inhibition panel; format: biochemical; conditions: 10 μM ATP
Sequence of PKCnu/PRK D3 (O94806 whole entry): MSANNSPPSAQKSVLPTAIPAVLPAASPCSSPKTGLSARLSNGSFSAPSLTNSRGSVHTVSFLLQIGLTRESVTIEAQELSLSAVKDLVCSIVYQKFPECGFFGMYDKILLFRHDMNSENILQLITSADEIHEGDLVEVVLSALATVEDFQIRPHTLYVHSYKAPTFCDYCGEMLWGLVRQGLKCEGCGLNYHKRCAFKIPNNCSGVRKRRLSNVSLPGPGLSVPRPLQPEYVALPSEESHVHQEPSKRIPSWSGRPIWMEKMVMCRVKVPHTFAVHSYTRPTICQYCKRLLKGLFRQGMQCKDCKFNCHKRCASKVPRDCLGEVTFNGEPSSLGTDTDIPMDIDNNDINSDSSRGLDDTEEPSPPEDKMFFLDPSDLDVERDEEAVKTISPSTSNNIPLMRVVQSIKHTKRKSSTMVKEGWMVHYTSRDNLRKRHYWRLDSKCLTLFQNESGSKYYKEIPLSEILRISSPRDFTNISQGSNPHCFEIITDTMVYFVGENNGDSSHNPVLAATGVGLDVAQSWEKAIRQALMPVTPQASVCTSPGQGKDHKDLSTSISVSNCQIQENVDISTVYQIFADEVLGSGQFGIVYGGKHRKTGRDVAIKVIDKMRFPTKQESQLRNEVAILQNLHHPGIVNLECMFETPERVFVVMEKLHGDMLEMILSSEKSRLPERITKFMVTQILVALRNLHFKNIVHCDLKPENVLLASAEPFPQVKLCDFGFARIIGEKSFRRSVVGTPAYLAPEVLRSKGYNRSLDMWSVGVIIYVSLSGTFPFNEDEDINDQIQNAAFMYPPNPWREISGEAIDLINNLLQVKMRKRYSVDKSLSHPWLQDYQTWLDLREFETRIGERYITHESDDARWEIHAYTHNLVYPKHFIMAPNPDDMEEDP

Sequence of FLTINEGFRI (P17948 27-1338): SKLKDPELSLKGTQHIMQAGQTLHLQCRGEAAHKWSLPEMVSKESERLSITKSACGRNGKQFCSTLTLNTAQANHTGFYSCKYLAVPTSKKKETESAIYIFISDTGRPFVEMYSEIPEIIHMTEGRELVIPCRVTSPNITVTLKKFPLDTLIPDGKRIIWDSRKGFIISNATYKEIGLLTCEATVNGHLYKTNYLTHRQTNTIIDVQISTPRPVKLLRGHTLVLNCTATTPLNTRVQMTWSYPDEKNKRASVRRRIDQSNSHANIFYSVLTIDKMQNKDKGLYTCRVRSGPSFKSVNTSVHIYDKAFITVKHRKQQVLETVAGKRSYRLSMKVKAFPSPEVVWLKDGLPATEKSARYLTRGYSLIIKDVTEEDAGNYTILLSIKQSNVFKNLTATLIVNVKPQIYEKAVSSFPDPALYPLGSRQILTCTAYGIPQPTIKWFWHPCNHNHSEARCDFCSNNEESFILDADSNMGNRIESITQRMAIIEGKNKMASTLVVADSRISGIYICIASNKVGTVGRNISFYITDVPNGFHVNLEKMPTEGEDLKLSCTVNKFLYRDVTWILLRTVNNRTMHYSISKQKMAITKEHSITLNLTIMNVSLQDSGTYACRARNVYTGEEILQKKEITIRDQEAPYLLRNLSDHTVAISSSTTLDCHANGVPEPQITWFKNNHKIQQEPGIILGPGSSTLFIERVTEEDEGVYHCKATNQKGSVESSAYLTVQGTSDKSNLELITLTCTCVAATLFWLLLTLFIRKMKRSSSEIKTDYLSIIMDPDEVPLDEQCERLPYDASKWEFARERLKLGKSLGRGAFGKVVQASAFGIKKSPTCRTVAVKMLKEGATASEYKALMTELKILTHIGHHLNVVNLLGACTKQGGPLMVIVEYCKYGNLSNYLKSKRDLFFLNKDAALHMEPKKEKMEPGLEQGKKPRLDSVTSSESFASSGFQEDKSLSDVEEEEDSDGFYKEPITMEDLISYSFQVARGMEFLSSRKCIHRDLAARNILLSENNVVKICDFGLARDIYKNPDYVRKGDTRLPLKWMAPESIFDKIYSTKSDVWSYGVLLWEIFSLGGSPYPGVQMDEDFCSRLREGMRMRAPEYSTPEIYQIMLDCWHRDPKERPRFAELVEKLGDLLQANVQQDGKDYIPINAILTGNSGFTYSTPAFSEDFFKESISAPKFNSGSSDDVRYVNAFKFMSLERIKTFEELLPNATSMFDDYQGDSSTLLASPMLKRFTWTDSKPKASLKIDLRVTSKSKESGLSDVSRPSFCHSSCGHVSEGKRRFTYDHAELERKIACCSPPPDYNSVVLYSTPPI
Sequence of SNARK/NUAK2 (Q9H093 whole entry): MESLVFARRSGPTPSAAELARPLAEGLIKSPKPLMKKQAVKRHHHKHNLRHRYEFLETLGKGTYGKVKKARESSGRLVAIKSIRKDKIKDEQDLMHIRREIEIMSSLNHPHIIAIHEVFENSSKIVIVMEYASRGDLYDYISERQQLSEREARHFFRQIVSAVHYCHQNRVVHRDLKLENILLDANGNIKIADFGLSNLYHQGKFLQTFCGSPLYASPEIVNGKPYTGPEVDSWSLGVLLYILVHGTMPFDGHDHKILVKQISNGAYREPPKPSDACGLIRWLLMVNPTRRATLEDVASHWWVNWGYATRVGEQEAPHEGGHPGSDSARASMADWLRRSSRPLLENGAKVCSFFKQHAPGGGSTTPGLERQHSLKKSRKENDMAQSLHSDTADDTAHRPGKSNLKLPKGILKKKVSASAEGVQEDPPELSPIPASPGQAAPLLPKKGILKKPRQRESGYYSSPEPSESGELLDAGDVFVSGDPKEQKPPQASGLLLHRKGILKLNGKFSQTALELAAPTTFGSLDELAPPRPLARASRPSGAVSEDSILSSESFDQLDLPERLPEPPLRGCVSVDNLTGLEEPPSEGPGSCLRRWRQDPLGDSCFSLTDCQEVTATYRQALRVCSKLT
Sequence of CDK5/p25 (Q00535 whole entry, species assumed): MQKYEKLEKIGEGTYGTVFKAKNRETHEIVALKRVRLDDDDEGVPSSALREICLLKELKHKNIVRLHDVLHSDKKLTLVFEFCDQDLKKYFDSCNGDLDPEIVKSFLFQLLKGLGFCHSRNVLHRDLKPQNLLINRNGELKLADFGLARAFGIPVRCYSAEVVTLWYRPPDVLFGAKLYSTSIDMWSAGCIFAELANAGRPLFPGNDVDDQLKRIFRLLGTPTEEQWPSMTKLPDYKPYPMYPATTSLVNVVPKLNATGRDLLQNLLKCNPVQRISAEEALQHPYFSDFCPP
Sequence of CDK5/p25 (Q15078 99-307 partner limits assumed, species assumed): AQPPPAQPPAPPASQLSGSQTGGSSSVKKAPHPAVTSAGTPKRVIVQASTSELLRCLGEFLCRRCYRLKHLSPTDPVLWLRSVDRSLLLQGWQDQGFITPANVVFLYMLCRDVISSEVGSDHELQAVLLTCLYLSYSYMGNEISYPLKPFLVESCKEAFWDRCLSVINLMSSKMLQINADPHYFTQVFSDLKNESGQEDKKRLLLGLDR
Sequence of LYNB (P07948 1-491 isoform P07948-2, species assumed): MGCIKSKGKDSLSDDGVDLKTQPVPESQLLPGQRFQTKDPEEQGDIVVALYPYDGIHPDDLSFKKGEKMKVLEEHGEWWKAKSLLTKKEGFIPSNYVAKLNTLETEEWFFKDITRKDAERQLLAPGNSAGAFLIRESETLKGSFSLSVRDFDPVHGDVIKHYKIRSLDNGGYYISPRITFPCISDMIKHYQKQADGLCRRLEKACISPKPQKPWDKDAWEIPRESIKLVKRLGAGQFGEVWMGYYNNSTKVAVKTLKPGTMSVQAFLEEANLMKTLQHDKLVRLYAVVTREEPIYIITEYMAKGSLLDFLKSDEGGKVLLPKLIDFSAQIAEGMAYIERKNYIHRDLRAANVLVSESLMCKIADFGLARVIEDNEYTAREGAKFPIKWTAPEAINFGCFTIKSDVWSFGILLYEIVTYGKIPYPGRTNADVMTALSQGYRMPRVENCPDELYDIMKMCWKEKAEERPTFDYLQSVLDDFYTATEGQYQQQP
Sequence of SIK2/SNF1LK2 (Q9H0K1 whole entry): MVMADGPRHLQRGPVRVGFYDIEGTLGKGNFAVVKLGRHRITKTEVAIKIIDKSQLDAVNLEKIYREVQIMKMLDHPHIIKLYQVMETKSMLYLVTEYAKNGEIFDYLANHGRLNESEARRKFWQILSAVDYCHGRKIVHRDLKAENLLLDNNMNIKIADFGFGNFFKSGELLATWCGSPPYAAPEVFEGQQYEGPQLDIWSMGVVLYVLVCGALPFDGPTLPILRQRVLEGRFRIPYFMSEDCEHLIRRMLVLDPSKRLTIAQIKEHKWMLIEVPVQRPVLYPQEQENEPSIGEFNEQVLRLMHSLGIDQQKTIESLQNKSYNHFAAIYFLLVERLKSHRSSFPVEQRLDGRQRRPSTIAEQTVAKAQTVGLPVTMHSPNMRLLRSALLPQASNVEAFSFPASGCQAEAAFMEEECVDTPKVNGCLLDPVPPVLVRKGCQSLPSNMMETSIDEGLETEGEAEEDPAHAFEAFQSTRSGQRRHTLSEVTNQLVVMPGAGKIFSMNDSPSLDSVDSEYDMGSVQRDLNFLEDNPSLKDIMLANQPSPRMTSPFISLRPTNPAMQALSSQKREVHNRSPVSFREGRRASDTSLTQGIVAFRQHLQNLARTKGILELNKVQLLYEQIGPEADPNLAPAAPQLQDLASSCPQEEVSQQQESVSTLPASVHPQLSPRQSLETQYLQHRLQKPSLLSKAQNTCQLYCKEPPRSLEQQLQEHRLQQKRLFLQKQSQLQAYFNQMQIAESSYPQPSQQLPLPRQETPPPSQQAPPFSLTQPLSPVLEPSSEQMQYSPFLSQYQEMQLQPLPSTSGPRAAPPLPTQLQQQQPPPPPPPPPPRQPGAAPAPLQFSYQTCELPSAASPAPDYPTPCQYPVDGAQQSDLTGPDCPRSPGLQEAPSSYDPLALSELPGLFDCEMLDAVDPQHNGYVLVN

`CN1CCN(c2ccc(Nc3ncc4cc(C#N)c(=O)n(C5CCCC5)c4n3)cc2)CC1` [Compound 12, 8-cyclopentyl-2-((4-(4-methylpiperazin-1-yl)phenyl)amino)-7-oxo-7,8-dihydropyrido[2,3-d]pyrimidine-6-carbonitrile] showed an IC50 [1] of 71.8 nM, an IC50 [2] of 2.64 nM and an IC50 [3] of 29.5 nM. The IC50 [4] was 85.4 nM, the IC50 [5] was 181 nM and the IC50 [6] was 70.8 nM. The IC50 [7] was 94.1 nM, the IC50 [8] was 50.4 nM and the IC50 [9] was 96.8 nM. For the same compound, the IC50 [10] was 91.6 nM, the IC50 [11] was 770 nM and the IC50 [12] was 120 nM. The IC50 [13] was 93 nM, the IC50 [14] was 1.46 nM and the IC50 [15] was 40.8 nM. The IC50 [16] was 20.7 nM, the IC50 [17] was 264 nM and the IC50 [18] was 37.1 nM. The IC50 [19] was 3220 nM, the IC50 [20] was 6650 nM and the IC50 [21] was 97.3 nM. It also gave an IC50 [22] of 68.2 nM, a GI50 [23] of 100 nM and a GI50 [24] of 250 nM. For the same compound, the GI50 [25] was 250 nM, the GI50 [26] was 750 nM and the GI50 [27] was 200 nM. For the same compound, the GI50 [28] was 750 nM, the GI50 [29] was 750 nM and the GI50 [30] was 250 nM. The GI50 [31] was 100 nM, the GI50 [32] was 200 nM and the IC50 [33] was 130 nM. It also gave an IC50 [34] of 45.3 nM, an IC50 [35] of 78.7 nM and an IC50 [36] of 21.2 nM. The IC50 [37] was 55.8 nM.
